From patent US9131689B2, “Use of a 1-N-(halo-3-pyridylmethyl)-N-methylamino-1-alkylamino-2-nitroethylene derivative for preparing a topical veterinary pharmaceutical composition for combating external parasites” (priority 2007, dated 2015)
Read-outs that look alike come from different tables or passages of the source.

Experiments:
Format in all cases: in vivo
Ctenocephalides felis [1] = test: Rapidity of action of topical compositions against flea infestation in cats (Example 1)
Method: In this example, a comparative study of the efficacy of nitenpyram (rapidity of action) administered topically, alone or in combination with fipronil, compared with fipronil administered alone, against cat fleas, was carried out.
It is a randomized, blind, controlled efficacy study carried out in parallel on 4 groups of six cats, according to the recommendations of the guidelines of the Committee for Veterinary Medicinal Products (CVMP): “Guidelines for the testing and evaluation of the efficacy of antiparasitic substances for the treatment and prevention of tick and flea infestations in dogs and cats”, EMEA/CVMP/005/00-FINAL-Rev.1.
The cats used in this study were male or female, adult domestic cats more than 6 months old, of mixed breeds, but mainly of short-hair European breed, weighing between 2 and 5 kg. […]
6 days before the beginning of the study (D=−6), all the cats were infested with approximately 100 laboratory fleas, strain Ctenocephalides felis, of male or female gender. The fleas were then counted on the day before the treatment (D=−1) and then at different times after application of the treatment (1, 4, 12 and 24 hours after treatment).
To do this, all the fleas present on an animal are harvested by combing the cat and then counting after combing. The number of live fleas is thus determined. […]

Ctenocephalides felis [2] = test: Supplementary study of efficacy over time after weekly flea re-infestation of cats (Example 3)
Method: In this example, a comparative study of the efficacy, over time, of nitenpyram administered topically, alone or in combination with fipronil, compared with fipronil administered alone, against cat fleas, was carried out. It is the continuation of the study of example 1 using compositions A, B and C.
At a regular interval after the first administration (D=0), all the cats were infested with approximately 100 laboratory fleas, strain Ctenocephalides felis, of male or female gender. The re-infestations were thus carried out at D=7, D=14, D=21, D=28, D=35, D=42, D=49, D=56 and D=63. The fleas were then counted various times after application of the treatment (at 2, 4 and 12 hours after re-infestation at D=7, D=14, D=21 and D=28; at 4, 8 and 12 hours after re-infestation at D=35 and D=42; at 12, 24 and 48 hours after re-infestation at D=49; at 24 and 48 hours after re-infestation at D=56 and, finally, at 48 hours after re-infestation at D=63).
To do this, all the fleas present on an animal were harvested by combing the cat, and then counted after combing. The number of live fleas is thus determined. After each count, the live fleas are put back on the cat. […]

[3] = Comparative pharmacokinetics of nitenpyram administered orally and topically to cats (Example 4); details: for Tmax: read-out: Tmax: time at which the maximum concentration of nitenpyram in the plasma is observed; for AUC: read-out: AUCtot: area under the curve of the nitenpyram concentration over time determined between t0 and the final measurement; for half-life: read-out: Thalf: half-life time (converted); for Cmax: read-out: Cmax: maximum amount of nitenpyram in the plasma
Method: In this example, a comparative study of the pharmacokinetics of nitenpyram administered topically and orally to cats was carried out.
The cats used in this study were prepared under the same conditions as those described in example 1.
It was verified, beforehand, that no trace of nitenpyram was detected in the plasma of the cats.
Ten young adult cats weighing between 2 and 6 kg are divided up into two groups: • a first group of 5 cats (female) received a single topical administration on the back between the shoulder blades at the beginning of the study; the topical composition is a solution containing 10% of nitenpyram (100 mg of nitenpyram per ml) and the amount administered is 0.5 ml per cat. • a second group (4 females and one male) received a single oral administration of the commercial product Capstar® given at the beginning of the study. The Capstar® product is a tablet comprising 11.4 mg of nitenpyram.
Blood samples were taken regularly, and centrifuged at 3000 rpm for 10 minutes at 4° C., the pellet is removed and the plasma is recovered for analysis.
The plasma concentration of nitenpyram is determined by the UPLC-MS/MS (Ultra-Performance Liquid Chromatography coupled to tandem mass spectrometry) method on an Acquity BEH C18 column and a Waters Quattro Premier XE mass […].

[4] = both sexes, in vivo, oral administration, Capstar tablet 11.4 mg nitenpyram
[5] = female, plasma, topical or ocular, 50 mg per cat, topical administration, 10% solution 0.5 ml per cat

With `CCN(Cc1ccc(Cl)nc1)/C(=C/[N+](=O)[O-])NC` [nitenpyram, (E)-N-(6-chloro-3-pyridylmethyl)-N-ethyl-N′-methyl-2-nitrovinylidenediamine] the “effect of topical administration on cat fleas” value (Ctenocephalides felis [1]) was “lethal effect on the cat fleas”, the “effect of topical administration on cat fleas” value (Ctenocephalides felis [2]) was “rapid and sustained lethal effect on cat fleas” and the Tmax ([3]; both sexes, cat, in vivo, oral administration, Capstar tablet 11.4 mg nitenpyram) was 1.3 h. The AUC [3, 4] was 76800 ng·h/mL, the half-life [3, 4] was 9.8 h and the Cmax ([3]; both sexes, in vivo, po, 11.4 mg, oral administration, Capstar tablet 11.4 mg nitenpyram) was over 5800 ng/mL. The AUC ([3]; female, in vivo, topical or ocular, 50 mg per cat, topical administration, 10% solution 0.5 ml per cat) was 86400 ng·h/mL, the Cmax [3, 5] was 1290 ng/mL and the half-life [3, 5] was 69.1 h. For the same compound, the Tmax [3, 5] was 15 h, the “tolerance of oral administration” value ([3]; oral, Capstar tablet) was “well tolerated” and the “half-life time administered topically relative to orally” value ([3]; topical vs oral) was “more than 7 times”. The “tolerance of topical administration” value ([3]; topical, 10% solution 0.5 ml per cat) was “well tolerated locally”.
